Literature values, collected in patent US11612579B2, “Compositions comprising a fatty acid oil mixture and a surfactant, and methods and uses thereof” (PRONOVA BIOPHARMA NORGE AS, priority 2009, dated 2023).
Values joined by “and” are separate entries in the source; they are usually repeats but may differ in a detail not shown here. Equal entries are not always repeated.

Details: commercially-available surfactants

Compound	HLB Value
sorbitan monopalmitate [Span ® 40]	6.7
CCCCCCCCCCCCOS(=O)(=O)[O-].[Na+] [Sodium lauryl sulphate]	40
CCCCCCCCCCCCCCCCCC(=O)OCC(O)CO (centres unmarked) [Glyceryl monostearate]	3.3 and 3.8
CCCCCCCCCCCCCCCCCC(=O)OCCOC(=O)CCCCCCCCCCCCCCCCC [Ethylene glycol distearate]	1.5
sorbitan monooleate [Span ® 80]	4.3
CCCCCCCCCCCCCCCC[N+](C)(C)C.[Br-] [Cetrimonium bromide]	23.3
sorbitan monostearate [Span ® 60]	4.7
CCCCCCCCCCCC(=O)OCCOCCO [Diethylene glycol monolaurate]	6.1
